In US8426429B2, “2-amino-quinazoline derivatives useful as inhibitors of β-secretase (BACE)” (Jansssen Pharmaceutica N.V., priority 2004, dated 2013):
Values joined by “and” are separate entries in the source; they are usually repeats but may differ in a detail not shown here. Identical values can stand only once.

Target: T1, β-secretase (BACE) (Homo sapiens, UniProt P56817)
T1 construct: purchased Panvera
Assay: BACE FS1 % Inhibition Assay
Format: biochemical
Procedure, shortened: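 Percent inhibition per compound concentration was referenced to vehicle-treated enzyme and no-enzyme wells. Enzyme at a 4 μg/mL working stock plus compound was mixed for 20 min at room temperature before the FS1 substrate (300 μg/mL working stock) was added for a 1 h room-temperature reaction.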

T1 sequence (P56817 46-501): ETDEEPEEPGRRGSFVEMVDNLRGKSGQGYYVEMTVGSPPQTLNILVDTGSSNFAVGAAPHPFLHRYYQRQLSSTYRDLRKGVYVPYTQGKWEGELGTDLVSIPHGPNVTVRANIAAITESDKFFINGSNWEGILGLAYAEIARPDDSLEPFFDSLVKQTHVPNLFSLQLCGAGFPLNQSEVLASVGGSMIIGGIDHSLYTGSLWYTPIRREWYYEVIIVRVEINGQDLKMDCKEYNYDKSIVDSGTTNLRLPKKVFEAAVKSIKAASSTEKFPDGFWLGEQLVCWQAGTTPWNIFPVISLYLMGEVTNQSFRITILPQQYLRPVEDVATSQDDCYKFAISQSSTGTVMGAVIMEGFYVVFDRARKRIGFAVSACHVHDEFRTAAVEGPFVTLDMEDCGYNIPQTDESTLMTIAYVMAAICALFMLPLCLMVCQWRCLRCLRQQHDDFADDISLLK

| Structure (SMILES) | % Inhibition (FS) (0.3 μM test compound) | % Inhibition (FS) (1 μM test compound) | % Inhibition (FS) (3 μM test compound) | % Inhibition (FS) (3 μM test compound, 3 µM) |
| --- | --- | --- | --- | --- |
| COc1cccc(OC)c1Oc1ccc2c(c1)CN(CCC(=O)NC1C3CC4CC(C3)CC1C4)C(N)=N2 (stereo not drawn) [Compound 465] | <30% | <30% | <30% |  |
| CC(C)c1ccccc1Oc1ccc2c(c1)CN(CCC(=O)NC1C3CC4CC(C3)CC1C4)C(N)=N2 (stereo not drawn) [Compound 466] | <30% | <30% | 53% |  |
| COc1ccc(C)cc1Oc1ccc2c(c1)CN(Cc1cccc(C(=O)N(C)C3CCCCC3)c1)C(N)=N2 [Compound 467] | <30% | <30% | <30% |  |
| COc1cccc(C)c1Oc1ccc2c(c1)CN(Cc1cccc(C(=O)N(C)C3CCCCC3)c1)C(N)=N2 [Compound 468] | <30% | <30% | <30% |  |
| COc1ccc(-c2nc3ccccc3s2)c(Oc2ccc3c(c2)CN(Cc2cccc(C(=O)N(C)C4CCCCC4)c2)C(N)=N3)c1 [Compound 469] | <30% | <30% | <30% |  |
| CN(C(=O)c1cccc(CN2Cc3cc(Oc4ccccc4-c4nc5ccccc5s4)ccc3N=C2N)c1)C1CCCCC1 [Compound 470] | <30% | <30% | 31% |  |
| CN(C(=O)c1cccc(CN2Cc3cc(Oc4ccccc4-n4cccc4)ccc3N=C2N)c1)C1CCCCC1 [Compound 471] | <30% | <30% | 38% |  |
| CN(C(=O)c1cccc(CN2Cc3cc(Oc4ccccc4S(C)(=O)=O)ccc3N=C2N)c1)C1CCCCC1 [Compound 472] | <30% | <30% | <30% |  |
| CN(C(=O)c1cccc(CN2Cc3cc(Oc4cccc(-c5ccc6ccccc6n5)c4)ccc3N=C2N)c1)C1CCCCC1 [Compound 473] | <30% | <30% | <30% |  |
| CSc1ccccc1Oc1ccc2c(c1)CN(Cc1cccc(C(=O)N(C)C3CCCCC3)c1)C(N)=N2 [Compound 474] | <30% | <30% | <30% |  |
| Cc1cccc(C)c1Oc1ccc2c(c1)CN(Cc1cccc(C(=O)N(C)C3CCCCC3)c1)C(N)=N2 [Compound 475] | <30% | <30% | <30% |  |
| COc1cccc(OC)c1Oc1ccc2c(c1)CN(Cc1cccc(C(=O)N(C)C3CCCCC3)c1)C(N)=N2 [Compound 477] | <30% | <30% | <30% |  |
| CC(C)Oc1ccccc1Oc1ccc2c(c1)CN(Cc1cccc(C(=O)N(C)C3CCCCC3)c1)C(N)=N2 [Compound 478] | <30% | <30% | 46% |  |
| CN(C)c1cccc(Oc2ccc3c(c2)CN(Cc2cccc(C(=O)N(C)C4CCCCC4)c2)C(N)=N3)c1 [Compound 479] | <30% | <30% | 81% |  |
| C=CCc1cccc(C)c1Oc1ccc2c(c1)CN(Cc1cccc(C(=O)N(C)C3CCCCC3)c1)C(N)=N2 [Compound 480] | <30% | <30% | 38% |  |
| C=CCc1cccc(OC)c1Oc1ccc2c(c1)CN(Cc1cccc(C(=O)N(C)C3CCCCC3)c1)C(N)=N2 [Compound 481] | <30% | <30% | 32% |  |
| CCCc1cccc(C)c1Oc1ccc2c(c1)CN(Cc1cccc(C(=O)N(C)C3CCCCC3)c1)C(N)=N2 [Compound 482] | <30% | <30% | 43% |  |
| CN(C(=O)c1cccc(CN2Cc3cc(Oc4ccccc4C(=O)N4CCCC4)ccc3N=C2N)c1)C1CCCCC1 [Compound 483] | <30% | <30% | <30% |  |
| C[C@@H](CNC(=O)C1CCCCC1)N1Cc2cc(Oc3ccccc3)ccc2N=C1N [Compound 486] | <30% | <30% | <30% |  |
| COc1ccccc1-c1ccc2c(c1)CN(CCNC(=O)C1(C(N)=O)CC1)C(N)=N2 [Compound 488] | <30% | <30% | <30% |  |
| COc1ccccc1-c1ccc2c(c1)CN(CCNC(=O)CN)C(N)=N2 [Compound 490] | <30% | <30% | <30% |  |
| COc1ccccc1-c1ccc2c(c1)CN(CCNC(=O)C1CCN(C(C)=O)CC1)C(N)=N2 [Compound 491] | <30% | <30% |  | 44% and <30% |
| COc1ccccc1-c1ccc2c(c1)CN(CCNC(=O)CCN)C(N)=N2 [Compound 493] | <30% | <30% | 49% |  |
| COc1ccccc1-c1ccc2c(c1)CN(CCNC(=O)CCCN)C(N)=N2 [Compound 494] | <30% | <30% | <30% |  |

| Structure (SMILES) | % Inhibition (FS) (0.3 μM test compound) | % Inhibition (FS) (1 μM test compound) | % Inhibition (FS) (3 μM test compound) | % Inhibition (FS) (3 μM test compound, 3 µM) |
| --- | --- | --- | --- | --- |
| CN(C(=O)c1ccc(CN2Cc3cc(Oc4ccccc4)ccc3N=C2N)s1)C1CCCCC1 [Compound 503] | <30% | <30% | 90% |  |
| CC1CCCCN1C(=O)CCCC(CCC(=O)N1CCCCC1C)N1Cc2cc(Oc3ccccc3)ccc2N=C1N (stereo not drawn) [Compound 504] | <30% | 31% | 96% |  |
| CC(C)(C)OC(=O)N1CCC(CN2Cc3cc(Oc4ccccc4)ccc3N=C2N)CC1 [Compound 509] | <30% | <30% | 41% |  |
| CC(C)(C)OC(=O)N1CCCCC(N2Cc3cc(Oc4ccccc4)ccc3N=C2N)C1 (stereo not drawn) [Compound 510] | <30% | <30% | 37% |  |
| CN(C(=O)c1cccc(CN2Cc3cc(Oc4ccccc4C4CCCC4)ccc3N=C2N)c1)C1CCCCC1 [Compound 512] | <30% | <30% | 51% |  |
| CN(C(=O)c1cccc(CN2Cc3cc(OCc4ccccc4-c4ccccc4)ccc3N=C2N)c1)C1CCCCC1 [Compound 513] | <30% | <30% | <30% |  |
| COc1cccc(COc2ccc3c(c2)CN(Cc2cccc(C(=O)N(C)C4CCCCC4)c2)C(N)=N3)c1 [Compound 514] | <30% | <30% | <30% |  |
| CCCCCOc1ccc2c(c1)CN(Cc1cccc(C(=O)N(C)C3CCCCC3)c1)C(N)=N2 [Compound 516] | <30% | <30% | <30% |  |
| CC(C)COc1ccc2c(c1)CN(Cc1cccc(C(=O)N(C)C3CCCCC3)c1)C(N)=N2 [Compound 518] | <30% | <30% | <30% |  |
| CC(C)Oc1ccc2c(c1)CN(Cc1cccc(C(=O)N(C)C3CCCCC3)c1)C(N)=N2 [Compound 519] | <30% | <30% | <30% |  |
| CN(C(=O)c1cccc(CN2Cc3cc(OC4CCCC4)ccc3N=C2N)c1)C1CCCCC1 [Compound 520] | <30% | <30% | 33% |  |
| CN(C(=O)c1cccc(CN2Cc3cc(OCC4CCCC4)ccc3N=C2N)c1)C1CCCCC1 [Compound 521] | <30% | <30% | <30% |  |
| CCCC(CCC)C(=O)N1CCC(N2Cc3cc(Oc4ccccc4)ccc3N=C2N)CC1 [Compound 523] | <30% | <30% | 58% |  |
| NC1=Nc2ccc(Oc3ccccc3)cc2CN1C1CCN(C(=O)C23CC4CC(CC(C4)C2)C3)CC1 [Compound 524] | <30% | <30% | 44% |  |
| NC1=Nc2ccc(Oc3ccccc3)cc2CN1CC1CCN(C(=O)C2CCCCC2)CC1 [Compound 525] | <30% | <30% | 70% |  |
| CCCC(CCC)C(=O)N1CCC(CN2Cc3cc(Oc4ccccc4)ccc3N=C2N)CC1 [Compound 526] | <30% | 36% | 98% |  |
| NC1=Nc2ccc(Oc3ccccc3)cc2CN1CC1CCN(C(=O)C23CC4CC(CC(C4)C2)C3)CC1 [Compound 527] | <30% | <30% | 51% |  |
| CC(C)[C@@H](CNC(=O)C1CCCCC1)N1Cc2cc(Oc3ccccc3)ccc2N=C1N [Compound 528] | <30% | <30% | 41% |  |
| NC1=Nc2ccc(Oc3c(F)cccc3F)cc2CN1CCC(=O)NC1C2CC3CC(C2)CC1C3 (stereo not drawn) [Compound 529] | <30% | <30% | 66% |  |
| CC1CCN(C(=O)CCCC(CCC(=O)N2CCC(C)CC2)N2Cc3cc(Oc4ccccc4)ccc3N=C2N)CC1 (stereo not drawn) [Compound 532] | <30% | <30% | 68% |  |
| CS(=O)(=O)Nc1ccccc1-c1ccc2c(c1)CN(CCNC(=O)C1CCCCC1)C(N)=N2 [Compound 539] | <30% | <30% | <30% |  |
| CSc1ccccc1-c1ccc2c(c1)CN(CCNC(=O)C1CCCCC1)C(N)=N2 [Compound 540] | <30% | 30% | 84% |  |
| CC(=O)Nc1ccccc1-c1ccc2c(c1)CN(CCNC(=O)C1CCCCC1)C(N)=N2 [Compound 541] | <30% | <30% | <30% |  |
